According to patent US12599136B2, “Substituted isophthalic acid diamides and their use as herbicides” (Bayer Aktiengesellschaft, priority 2020, dated 2026):

Key:
Type in all cases: in vivo
[1] = test system: Abutilon theophrasti; test: Pre-emergence herbicidal action against ABUTH; conditions: visual score after 3 weeks vs untreated controls
Summary of the method: (§1)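 Sandy loam pots, seeds covered with soil, then surface-treated with WP or EC formulations at 600–800 l/ha water plus 0.2% wetting agent. Greenhouse, 3 weeks. Percent damage vs untreated controls.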

[2] = test system: Alopecurus myosuroides; test: Pre-emergence herbicidal action against ALOMY; conditions: visual score after 3 weeks vs untreated controls
Summary of the method: as §1

[3] = test system: Amaranthus retroflexus; test: Pre-emergence herbicidal action against AMARE; conditions: visual score after 3 weeks vs untreated controls
Summary of the method: as §1

[4] = test system: Avena fatua; test: Pre-emergence herbicidal action against AVEFA; conditions: 320 g/ha; visual score after 3 weeks vs untreated controls
Summary of the method: as §1

[5] = test system: Cyperus esculentus; test: Pre-emergence herbicidal action against CYPES; conditions: visual score after 3 weeks vs untreated controls
Summary of the method: as §1

[6] = test system: Echinochloa crus-galli; test: Pre-emergence herbicidal action against ECHCG; conditions: visual score after 3 weeks vs untreated controls
Summary of the method: as §1

[7] = test system: Matricaria inodora; test: Pre-emergence herbicidal action against MATIN; conditions: visual score after 3 weeks vs untreated controls
Summary of the method: as §1

[8] = test system: Pharbitis purpurea; test: Pre-emergence herbicidal action against PHBPU; conditions: 320 g/ha; visual score after 3 weeks vs untreated controls
Summary of the method: as §1

[9] = test system: Hordeum murinum; test: Pre-emergence herbicidal action against HORMU; conditions: 320 g/ha; visual score after 3 weeks vs untreated controls
Source text: Seeds of monocotyledonous and dicotyledonous weed plants and crop plants are laid out in sandy loam soil in wood-fiber pots and covered with soil. The compounds of the invention, formulated in the form of wettable powders (WP) or as emulsion concentrates (EC), are then applied to the surface of the covering soil in the form of an aqueous suspension or emulsion at a water application rate equivalent to 600 to 800 l/ha, with addition of 0.2% wetting agent. After the treatment, the pots are placed in a greenhouse and kept under good growth conditions for the trial plants. The damage to the test plants is scored visually after a test period of 3 weeks by comparison with untreated controls (herbicidal activity in percent (%): 100% activity=the plants have died, 0% activity=like control plants). […] The tables below illustrate, in an illustrative manner, the post-emergence herbicidal action of the compounds of the invention, the herbicidal activity being stated in percent.

[10] = test system: Lolium rigidum; test: Pre-emergence herbicidal action against LOLRI; conditions: 320 g/ha
Summary of the method: as §1

[11] = test system: Setaria viridis; test: Pre-emergence herbicidal action against SETVI
Summary of the method: as §1

[12] = test system: Stellaria media; test: Pre-emergence herbicidal action against STEME
Summary of the method: as §1

[13] = test system: Veronica persica; test: Pre-emergence herbicidal action against VERPE; conditions: 320 g/ha
Summary of the method: as §1

[14] = test system: Viola tricolor; test: Pre-emergence herbicidal action against VIOTR
Summary of the method: as §1

[15] = test system: Abutilon theophrasti; test: Post-emergence herbicidal action against ABUTH
Summary of the method: (§2)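 Visual % rating (0% = as untreated, 100% = dead) ~3 wk after spraying one-leaf-stage plants grown in sandy loam; WP/EC in water at 600–800 l/ha, 0.2% wetting agent.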

[16] = test system: Alopecurus myosuroides; test: Post-emergence herbicidal action against ALOMY
Summary of the method: as §2

[17] = test system: Amaranthus retroflexus; test: Post-emergence herbicidal action against AMARE; conditions: visual assessment about 3 weeks after treatment
Summary of the method: as §2

[18] = test system: Avena fatua; test: Post-emergence herbicidal action against AVEFA; conditions: visual assessment about 3 weeks after treatment
Summary of the method: as §2

[19] = test system: Cyperus esculentus; test: Post-emergence herbicidal action against CYPES; conditions: visual assessment about 3 weeks after treatment
Description: (§3) Seeds of monocotyledonous and dicotyledonous weed and crop plants are laid out in sandy loam soil in wood-fiber pots, covered with soil and cultivated in a greenhouse under good growth conditions. 2 to 3 weeks after sowing, the test plants are treated at the one-leaf stage. The compounds of the invention, formulated in the form of wettable powders (WP) or as emulsion concentrates (EC), are then sprayed onto the green parts of the plants in the form of an aqueous suspension or emulsion at a water application rate equivalent to 600 to 800 l/ha, with addition of 0.2% wetting agent. After the test plants have been left to stand in the greenhouse under optimal growth conditions for about 3 weeks, the action of the preparations is assessed visually in comparison to untreated controls (herbicidal action in percent (%): 100% activity=the plants have died, 0% activity=like control plants). […] The tables below illustrate, in an illustrative manner, the post-emergence herbicidal action of the compounds of the invention, the herbicidal activity being stated in percent.

[20] = test system: Echinochloa crus-galli; test: Post-emergence herbicidal action against ECHCG; conditions: visual assessment about 3 weeks after treatment
Summary of the method: as §2

[21] = test system: Matricaria inodora; test: Post-emergence herbicidal action against MATIN; conditions: visual assessment about 3 weeks after treatment
Summary of the method: as §2

[22] = test system: Pharbitis purpurea; test: Post-emergence herbicidal action against PHBPU; conditions: visual assessment about 3 weeks after treatment
Summary of the method: as §2

[23] = test system: Hordeum murinum; test: Post-emergence herbicidal action against HORMU
Description: as §3

[24] = test system: Polygonum convolvulus; test: Post-emergence herbicidal action against POLCO; conditions: visual assessment about 3 weeks after treatment
Description: as §3

[25] = test system: Setaria viridis; test: Post-emergence herbicidal action against SETVI; conditions: visual assessment about 3 weeks after treatment
Summary of the method: as §2

[26] = test system: Stellaria media; test: Post-emergence herbicidal action against STEME; conditions: visual assessment about 3 weeks after treatment
Summary of the method: as §2

[27] = test system: Veronica persica; test: Post-emergence herbicidal action against VERPE; conditions: 80 g/ha, visual assessment about 3 weeks after treatment
Summary of the method: as §2

[28] = test system: Viola tricolor; test: Post-emergence herbicidal action against VIOTR
Summary of the method: as §2

[29] = test system: Polygonum convolvulus; test: Pre-emergence herbicidal action against POLCO
Summary of the method: as §1

[30] = Dosage column 320 g/ha (heading prints 3200 g/ha)

CCCn1nnnc1NC(=O)c1ccc(C(F)(F)F)c(C(=O)N(C)CC)c1Cl [Example 3-124]
80%: Pre-emergence action against ALOMY ([2]; 80 g/ha) | Pre-emergence action against CYPES ([5]; 80 g/ha) | Pre-emergence action against ECHCG ([6]; 80 g/ha) | Pre-emergence action against MATIN ([7]; 20 g/ha) | Pre-emergence action against HORMU [9] | Pre-emergence action against LOLRI [10] | Pre-emergence action against VIOTR ([14]; 80 g/ha) | Post-emergence action against ALOMY ([16]; 20 g/ha) | Post-emergence action against AVEFA in % ([18]; 20 g/ha) | Post-emergence action against CYPES in % ([19]; 80 g/ha) | Post-emergence action against HORMU in % ([23]; 20 g/ha) | Post-emergence action against HORMU in % ([23]; 80 g/ha) | Post-emergence action against POLCO in % ([24]; 80 g/ha) | Post-emergence action against VERPE in % [27]
90%: Pre-emergence action against ALOMY ([2]; 320 g/ha) | Pre-emergence action against AMARE ([3]; 20 g/ha) | Pre-emergence action against CYPES ([5]; 320 g/ha) | Pre-emergence action against MATIN ([7]; 80 g/ha) | Pre-emergence action against MATIN ([7]; 320 g/ha) | Pre-emergence action against PHBPU [8] | Pre-emergence action against SETVI ([11]; 80 g/ha) | Pre-emergence action against STEME ([12]; 20 g/ha) | Pre-emergence action against VERPE [13] | Post-emergence action against ECHCG in % ([20]; 5 g/ha) | Post-emergence action against MATIN in % ([21]; 5 g/ha) | Post-emergence action against PHBPU in % ([22]; 5 g/ha) | Post-emergence action against PHBPU in % ([22]; 20 g/ha) | Post-emergence action against SETVI in % ([25]; 5 g/ha) | Post-emergence action against SETVI in % ([25]; 20 g/ha) | Post-emergence action against STEME in % ([26]; 5 g/ha)
100%: Pre-emergence action against ABUTH ([1]; 20 g/ha) | Pre-emergence action against ABUTH ([1]; 80 g/ha) | Pre-emergence action against ABUTH [1, 30] | Pre-emergence action against AMARE ([3]; 80 g/ha) | Pre-emergence action against AMARE ([3]; 320 g/ha) | Pre-emergence action against AVEFA [4] | Pre-emergence action against ECHCG ([6]; 320 g/ha) | Pre-emergence action against SETVI ([11]; 320 g/ha) | Pre-emergence action against STEME ([12]; 80 g/ha) | Pre-emergence action against STEME ([12]; 320 g/ha) | Pre-emergence action against VIOTR ([14]; 320 g/ha) | Post-emergence action against ABUTH ([15]; 5 g/ha) | Post-emergence action against ABUTH ([15]; 20 g/ha) | Post-emergence action against ABUTH ([15]; 80 g/ha) | Post-emergence action against ALOMY ([16]; 80 g/ha) | Post-emergence action against AMARE in % ([17]; 5 g/ha) | Post-emergence action against AMARE in % ([17]; 20 g/ha) | Post-emergence action against AMARE in % ([17]; 80 g/ha) | Post-emergence action against AVEFA in % ([18]; 80 g/ha) | Post-emergence action against ECHCG in % ([20]; 20 g/ha) | Post-emergence action against ECHCG in % ([20]; 80 g/ha) | Post-emergence action against MATIN in % ([21]; 20 g/ha) | Post-emergence action against MATIN in % ([21]; 80 g/ha) | Post-emergence action against PHBPU in % ([22]; 80 g/ha) | Post-emergence action against SETVI in % ([25]; 80 g/ha) | Post-emergence action against STEME in % ([26]; 20 g/ha) | Post-emergence action against STEME in % ([26]; 80 g/ha) | Post-emergence action against VIOTR in % ([28]; 5 g/ha) | Post-emergence action against VIOTR in % ([28]; 20 g/ha) | Post-emergence action against VIOTR in % ([28]; 80 g/ha)

CCCn1nnnc1NC(=O)c1ccc(C(F)(F)F)c(C(=O)N2CCCC2)c1Cl [Example 3-152]
100%: Pre-emergence action against ABUTH ([1]; 20 g/ha) | Pre-emergence action against ABUTH ([1]; 80 g/ha) | Pre-emergence action against ABUTH [1, 30] | Pre-emergence action against AMARE ([3]; 20 g/ha) | Pre-emergence action against AMARE ([3]; 80 g/ha) | Pre-emergence action against AMARE ([3]; 320 g/ha) | Pre-emergence action against AVEFA [4] | Pre-emergence action against ECHCG ([6]; 320 g/ha) | Pre-emergence action against MATIN ([7]; 80 g/ha) | Pre-emergence action against MATIN ([7]; 320 g/ha) | Pre-emergence action against PHBPU [8] | Pre-emergence action against SETVI ([11]; 320 g/ha) | Pre-emergence action against STEME ([12]; 20 g/ha) | Pre-emergence action against STEME ([12]; 80 g/ha) | Pre-emergence action against STEME ([12]; 320 g/ha) | Pre-emergence action against VERPE [13] | Post-emergence action against ABUTH ([15]; 20 g/ha) | Post-emergence action against ABUTH ([15]; 80 g/ha) | Post-emergence action against AMARE in % ([17]; 5 g/ha) | Post-emergence action against AMARE in % ([17]; 20 g/ha) | Post-emergence action against AMARE in % ([17]; 80 g/ha) | Post-emergence action against AVEFA in % ([18]; 80 g/ha) | Post-emergence action against ECHCG in % ([20]; 80 g/ha) | Post-emergence action against PHBPU in % ([22]; 80 g/ha) | Post-emergence action against SETVI in % ([25]; 80 g/ha)
80%: Pre-emergence action against ALOMY ([2]; 320 g/ha) | Pre-emergence action against CYPES ([5]; 80 g/ha) | Pre-emergence action against ECHCG ([6]; 80 g/ha) | Pre-emergence action against MATIN ([7]; 20 g/ha) | Pre-emergence action against POLCO ([29]; 80 g/ha) | Post-emergence action against ALOMY ([16]; 80 g/ha) | Post-emergence action against CYPES in % ([19]; 20 g/ha) | Post-emergence action against CYPES in % ([19]; 80 g/ha) | Post-emergence action against ECHCG in % ([20]; 20 g/ha) | Post-emergence action against PHBPU in % ([22]; 20 g/ha) | Post-emergence action against STEME in % ([26]; 5 g/ha) | Post-emergence action against STEME in % ([26]; 20 g/ha) | Post-emergence action against VERPE in % [27] | Post-emergence action against VIOTR in % ([28]; 80 g/ha)
90%: Pre-emergence action against CYPES ([5]; 320 g/ha) | Pre-emergence action against POLCO ([29]; 320 g/ha) | Pre-emergence action against VIOTR ([14]; 80 g/ha) | Pre-emergence action against VIOTR ([14]; 320 g/ha) | Post-emergence action against ABUTH ([15]; 5 g/ha) | Post-emergence action against MATIN in % ([21]; 80 g/ha) | Post-emergence action against POLCO in % ([24]; 20 g/ha) | Post-emergence action against POLCO in % ([24]; 80 g/ha) | Post-emergence action against STEME in % ([26]; 80 g/ha)
